Measurements from patent US10456467B2, “Nanoparticle delivery system for targeted anti-obesity treatment” (UNIVERSITY OF WYOMING, priority 2014, dated 2019).

Legend:
[1] = target: T1, TRPV1 channel protein (CAP receptor) (Homo sapiens, UniProt Q8NER1); assay: Fura-2 Ca2+ influx imaging in HEK293 cells expressing TRPV1; type: cell-based; conditions: 1 μM CAP or equivalent, 22 degrees Celsius, FIG. 4
T1 construct: expressed in transfected cells; host or cells: HEK293
Experimental: FIG. 4 is a graph 400 of the time to peak rise of Ca^2+ for PLGA coated CMN, pure CAP and MNPs containing no CAP, according to embodiments described herein. HEK293 cells expressing TRPV1 channel protein (CAP receptor) grown on coverslips were loaded with Fura-2 AM (2 μM) for 40 minutes at room temperature. Cells were washed and then viewed with a Leica DMI3000 B inverted microscope coupled to a Polychrome V digital imaging system with Imago CCD camera. Cells were continuously superfused (22 degrees Celsius) with 2 mM Ca^2+ containing normal extracellular solution (NES). The Ca^2+ influx due to the addition of pure capsaicin (1 μM), CMN or PCMN (equivalent of 1 μM CAP), was observed and measured as a function of fluorescence.

[2] = CAP release (dissolution) in pH 7.4 phosphate buffer, Vankel dissolution apparatus; type: physicochemical; conditions: 37° C.
Source text: The cumulative release (%) was plotted against time. Cumulative % Release=C1V1×CF/100×C2
C1=Concentration of capsaicin in the final solution (g/ml);
C2=Drug content (mgs) used for dissolution study;
CF=Correction Factor, which is an accommodation for the change in volume due to sampling; and
V1=Volume of dissolution medium (ml)

[3] = cited from earlier work

T1 sequence (Q8NER1 whole entry): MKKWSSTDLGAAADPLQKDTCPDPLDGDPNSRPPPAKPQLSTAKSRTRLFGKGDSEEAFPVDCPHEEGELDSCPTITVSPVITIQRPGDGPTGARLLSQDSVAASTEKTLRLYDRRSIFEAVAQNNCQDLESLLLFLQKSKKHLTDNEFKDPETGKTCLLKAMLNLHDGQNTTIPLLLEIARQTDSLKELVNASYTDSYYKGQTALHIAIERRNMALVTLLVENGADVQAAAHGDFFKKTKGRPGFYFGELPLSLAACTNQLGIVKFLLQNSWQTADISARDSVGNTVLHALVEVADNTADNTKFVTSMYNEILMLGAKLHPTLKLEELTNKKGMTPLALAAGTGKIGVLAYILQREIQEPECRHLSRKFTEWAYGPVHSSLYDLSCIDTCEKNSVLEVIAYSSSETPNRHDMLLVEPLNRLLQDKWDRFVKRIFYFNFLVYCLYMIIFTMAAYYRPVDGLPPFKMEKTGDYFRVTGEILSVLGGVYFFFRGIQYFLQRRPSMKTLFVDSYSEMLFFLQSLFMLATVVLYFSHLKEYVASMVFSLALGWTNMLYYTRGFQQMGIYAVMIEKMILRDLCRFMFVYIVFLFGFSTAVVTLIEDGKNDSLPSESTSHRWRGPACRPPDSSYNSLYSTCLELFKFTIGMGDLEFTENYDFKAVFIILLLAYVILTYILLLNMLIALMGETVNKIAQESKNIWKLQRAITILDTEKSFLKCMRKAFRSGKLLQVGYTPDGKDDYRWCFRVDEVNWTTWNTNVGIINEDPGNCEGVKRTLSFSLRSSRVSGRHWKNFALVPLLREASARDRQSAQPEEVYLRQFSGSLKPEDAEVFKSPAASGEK

time at which rise in Ca2+ concentration begins [1]: approximately 175 seconds
time of peak rise in Ca2+ concentration [1]: about 300 seconds
time of peak CAP concentration (cumulative release) ([2]; FIG. 3, 15 to 3000 minutes): around 500 minutes
course of CAP concentration after the peak ([2]; FIG. 3, up to 3000 minutes): steadily decrease
Compound: COc1cc(CNC(=O)CCCC/C=C/C(C)C)ccc1O [pure CAP, capsaicin]
effect on high fat diet-induced weight gain in the absence of the TRPV1 protein in adipose tissue ([3]; absence of TRPV1 protein in adipose tissue): does not inhibit high fat diet-induced weight gain
effect on high fat diet-induced weight gain ([3]; mouse model systems): inhibit high fat diet-induced weight gain
